In PubChem BioAssay (NCI):
Where “and” joins values, the source holds several entries; their conditions need not be identical. Equal entries are not always repeated.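 All cell lines were grown in 96-well plates and treated with compound for 48 hours. Abbreviation: GI50, concentration required for 50% inhibition of growth. At the TGI there is no net growth.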

Experiments:
Assay in all cases: NCI-60 cell line screen, 48 h
A498 renal = system: A498 renal
MDA-MB-231 breast = system: MDA-MB-231 breast
U251 CNS = system: U251 CNS
SF-539 CNS = system: SF-539 CNS
MOLT-4 leukemia = system: MOLT-4 leukemia
OVCAR-5 ovarian = system: OVCAR-5 ovarian
HS 578T breast = system: HS 578T breast
HCT-15 colon = system: HCT-15 colon
T-47D breast = system: T-47D breast
SF-295 CNS = system: SF-295 CNS

COc1ccc(-c2nc(-c3nc4ccc(C)cc4[nH]3)cc3c2[nH]c2ccccc23)cc1
GI50 (A498 renal): 2.36 µM
TGI (A498 renal): > 100 µM
GI50 (MDA-MB-231 breast): 6.88 µM
TGI (MDA-MB-231 breast): > 100 µM
GI50 (U251 CNS): 3.42 µM
TGI (U251 CNS): > 100 µM
GI50 (SF-539 CNS): 3.92 µM
TGI (SF-539 CNS): > 100 µM
GI50 (MOLT-4 leukemia): 2.31 µM
TGI (MOLT-4 leukemia): 10 µM
GI50 (OVCAR-5 ovarian): 6.83 µM
TGI (OVCAR-5 ovarian): > 100 µM
GI50 (HS 578T breast): 4.94 µM
TGI (HS 578T breast): > 100 µM
GI50 (HCT-15 colon): 3.2 µM
TGI (HCT-15 colon): > 100 µM
GI50 (T-47D breast): 3.67 µM
TGI (T-47D breast): 19.2 µM

Cc1cc(-c2c(F)cc3c4nn([C@H]5CC[C@@H](N(C)C)CC5)c(=O)c-4cn(C4CC4)c3c2F)cc(C)n1
TGI (SF-295 CNS): 0.717 µM
GI50 (A498 renal): 0.141 µM
TGI (A498 renal): 0.0558 µM and 0.471 µM
TGI (U251 CNS): 0.814 µM
GI50 (SF-539 CNS): 0.0561 µM
TGI (SF-539 CNS): 0.174 µM and 0.62 µM
GI50 (MOLT-4 leukemia): 0.002 µM
TGI (OVCAR-5 ovarian): 14.2 µM
TGI (HS 578T breast): 6.25 µM
TGI (T-47D breast): 2.76 µM

Cc1ccc(-c2nc(/C=N/Nc3cc(C)nc4ccc(Cl)cc34)c(C)o2)cc1
GI50 (SF-295 CNS): 1.8 µM
TGI (SF-295 CNS): 3.31 µM
GI50 (A498 renal): 1.61 µM
TGI (A498 renal): 3.77 µM
GI50 (MDA-MB-231 breast): 1.81 µM
TGI (MDA-MB-231 breast): 3.48 µM
GI50 (U251 CNS): 1.83 µM
TGI (U251 CNS): 3.39 µM
GI50 (SF-539 CNS): 1.78 µM
TGI (SF-539 CNS): 3.29 µM
GI50 (MOLT-4 leukemia): 2.02 µM
TGI (MOLT-4 leukemia): 4.88 µM
GI50 (OVCAR-5 ovarian): 1.72 µM
TGI (OVCAR-5 ovarian): 3.39 µM
GI50 (HCT-15 colon): 0.549 µM
TGI (HCT-15 colon): 2.08 µM
GI50 (T-47D breast): 1.8 µM
TGI (T-47D breast): 3.72 µM

CCOC(=O)c1cc(-c2ccc(-c3cc(C(=O)OCC)c(C#N)c(N)c3C#N)cc2)c(C#N)c(N)c1C#N
TGI (SF-295 CNS): > 100 µM
TGI (U251 CNS): > 100 µM
TGI (SF-539 CNS): > 100 µM
TGI (MOLT-4 leukemia): > 100 µM
TGI (OVCAR-5 ovarian): > 100 µM
TGI (HCT-15 colon): > 100 µM

COc1ccc(C2=Nc3ccccc3SC(C)C2)cc1OC (stereo not drawn)
TGI (SF-295 CNS): 38 µM
TGI (A498 renal): 39.8 µM
TGI (U251 CNS): 30.9 µM
TGI (MOLT-4 leukemia): 34.8 µM
TGI (OVCAR-5 ovarian): 52.6 µM
TGI (HCT-15 colon): 31.9 µM

Cc1c(C(=O)O)n(C)c(=O)n(C)c1=O
TGI (SF-295 CNS): > 100 µM
TGI (A498 renal): > 100 µM
TGI (U251 CNS): > 100 µM
TGI (SF-539 CNS): > 100 µM
TGI (MOLT-4 leukemia): > 100 µM
TGI (OVCAR-5 ovarian): > 100 µM
TGI (HCT-15 colon): > 100 µM

COc1ccccc1S(=O)(=O)Nc1ccc2c3c(cc(CCC(=O)NCCCCNc4cccc5c4C(=O)N(C4CCC(=O)NC4=O)C5=O)cc13)C(=O)N2C (stereo not drawn)
GI50 (SF-295 CNS): 3.75 µM
TGI (SF-295 CNS): > 100 µM
GI50 (A498 renal): 0.659 µM
TGI (A498 renal): 6.08 µM
GI50 (MDA-MB-231 breast): 0.0351 µM
TGI (MDA-MB-231 breast): 0.295 µM
GI50 (U251 CNS): > 63.4 µM
TGI (U251 CNS): > 100 µM
GI50 (SF-539 CNS): 0.978 µM
TGI (SF-539 CNS): > 100 µM
GI50 (MOLT-4 leukemia): 0.0352 µM
GI50 (OVCAR-5 ovarian): 2.77 µM
TGI (OVCAR-5 ovarian): > 100 µM
GI50 (HS 578T breast): 0.186 µM
TGI (HS 578T breast): 1.1 µM
GI50 (T-47D breast): 0.0343 µM

CCOC(=O)C(Cc1ccc(N(CCCl)CCCl)cc1)NC(=O)C(Cc1ccccc1)NC=O (stereo not drawn)
TGI (SF-295 CNS): 0.523 µM
TGI (A498 renal): 0.384 µM
TGI (MDA-MB-231 breast): 0.344 µM
TGI (U251 CNS): 0.499 µM
TGI (SF-539 CNS): 0.316 µM
TGI (MOLT-4 leukemia): 0.161 µM
TGI (OVCAR-5 ovarian): 0.548 µM
TGI (HCT-15 colon): 0.602 µM
TGI (T-47D breast): 0.241 µM

C/C(CN1C(=O)c2ccccc2C1=O)=N\NS(=O)(=O)c1cccc(C(=O)O)c1
TGI (SF-295 CNS): > 100 µM
TGI (A498 renal): > 100 µM
TGI (U251 CNS): > 100 µM
TGI (SF-539 CNS): > 100 µM
TGI (MOLT-4 leukemia): > 100 µM
TGI (OVCAR-5 ovarian): > 100 µM
TGI (HCT-15 colon): > 100 µM

CC/C(Cc1ccccc1)=C(\c1ccc(OCCN2CCCC2)cc1)c1ccc(OC(=O)NCc2ccccc2)cc1
GI50 (SF-295 CNS): 1.7 µM
TGI (SF-295 CNS): 3.14 µM
GI50 (MDA-MB-231 breast): 1.84 µM
TGI (MDA-MB-231 breast): 3.35 µM
GI50 (U251 CNS): 1.77 µM
TGI (U251 CNS): 3.17 µM
GI50 (SF-539 CNS): 1.7 µM
TGI (SF-539 CNS): 3.09 µM
GI50 (MOLT-4 leukemia): 2.23 µM
TGI (MOLT-4 leukemia): 5.66 µM
GI50 (OVCAR-5 ovarian): 1.93 µM
TGI (OVCAR-5 ovarian): 4.65 µM
GI50 (HS 578T breast): 1.97 µM
TGI (HS 578T breast): 4.32 µM
GI50 (HCT-15 colon): 1.58 µM
TGI (HCT-15 colon): 3.07 µM
GI50 (T-47D breast): 1.41 µM
TGI (T-47D breast): 4.23 µM

Cc1ccc(N=C[N-]c2ccc(C)cc2)cc1.Cc1ccc(N=C[N-]c2ccc(C)cc2)cc1.O=C([O-])C(F)(F)F.O=C([O-])C(F)(F)F.[OH3+].[OH3+].[Rh+2].[Rh+2]
GI50 (SF-295 CNS): 86.8 µM
TGI (SF-295 CNS): > 100 µM
GI50 (U251 CNS): 25.8 µM
TGI (U251 CNS): 72.3 µM
GI50 (SF-539 CNS): 26.6 µM
TGI (SF-539 CNS): 78.7 µM
GI50 (MOLT-4 leukemia): 19 µM
TGI (MOLT-4 leukemia): 42.7 µM
GI50 (OVCAR-5 ovarian): > 100 µM
TGI (OVCAR-5 ovarian): > 100 µM
GI50 (HCT-15 colon): 46.1 µM
TGI (HCT-15 colon): > 100 µM

Cc1ccc(C)c(N2C(=O)C(=O)C(c3nc4ccccc4o3)C(=O)C2=O)c1
TGI (SF-295 CNS): > 100 µM
TGI (A498 renal): > 100 µM
TGI (U251 CNS): > 100 µM
TGI (SF-539 CNS): > 100 µM
TGI (MOLT-4 leukemia): > 100 µM
TGI (HCT-15 colon): > 100 µM

COC1CC(O)C(OC(=O)c2ccccc2)C(C)O1 (stereo not drawn)
TGI (SF-295 CNS): > 100 µM
TGI (A498 renal): > 100 µM
TGI (U251 CNS): > 100 µM
TGI (SF-539 CNS): > 100 µM
TGI (MOLT-4 leukemia): > 100 µM
TGI (OVCAR-5 ovarian): > 100 µM
TGI (HCT-15 colon): > 100 µM

CCC[CH2][Sn]([CH2]CCC)([S]C#N)[S]C#N
GI50 (SF-295 CNS): 1.53 µM
TGI (SF-295 CNS): 2.94 µM
GI50 (U251 CNS): 0.768 µM
TGI (U251 CNS): 2.04 µM
GI50 (SF-539 CNS): 1.24 µM
TGI (SF-539 CNS): 2.55 µM
GI50 (MOLT-4 leukemia): 0.462 µM
TGI (MOLT-4 leukemia): 3.23 µM
GI50 (OVCAR-5 ovarian): 1.56 µM
TGI (OVCAR-5 ovarian): 2.96 µM
GI50 (HCT-15 colon): 1.18 µM
TGI (HCT-15 colon): 2.53 µM

COc1ccc2oc3c(OC)c(OC)c(OC)cc3c(=O)c2c1
TGI (A498 renal): > 100 µM
TGI (U251 CNS): > 100 µM
TGI (SF-539 CNS): > 100 µM
TGI (MOLT-4 leukemia): > 100 µM
TGI (OVCAR-5 ovarian): > 100 µM
TGI (HCT-15 colon): > 100 µM

COc1ccccc1NC(=O)C1=C(C)NC(C)=C(C(=O)Nc2ccccc2OC)C1/C=C/c1ccccc1
TGI (SF-295 CNS): > 100 µM
TGI (A498 renal): > 100 µM
TGI (U251 CNS): > 100 µM
TGI (SF-539 CNS): > 100 µM
TGI (MOLT-4 leukemia): > 100 µM
TGI (OVCAR-5 ovarian): > 100 µM
TGI (HCT-15 colon): > 100 µM

COC(=O)c1c(-c2cccs2)oc(-c2cccs2)c1C(=O)OC
GI50 (SF-295 CNS): 19.4 µM
TGI (SF-295 CNS): 51.8 µM
GI50 (A498 renal): 31.8 µM
TGI (A498 renal): 94.4 µM
GI50 (MDA-MB-231 breast): 34 µM
TGI (MDA-MB-231 breast): > 94.5 µM
GI50 (U251 CNS): 59.6 µM
TGI (U251 CNS): > 100 µM
GI50 (SF-539 CNS): 84.4 µM
TGI (SF-539 CNS): > 100 µM
GI50 (OVCAR-5 ovarian): > 95 µM
TGI (OVCAR-5 ovarian): > 100 µM
GI50 (HS 578T breast): 35.8 µM
TGI (HS 578T breast): > 100 µM
GI50 (HCT-15 colon): 27.5 µM
TGI (HCT-15 colon): > 100 µM
GI50 (T-47D breast): 28.5 µM
TGI (T-47D breast): > 100 µM

CCOC(=O)/C(=C/c1cccc(Cl)c1)N(CC)CC
TGI (SF-295 CNS): > 100 µM
TGI (A498 renal): > 100 µM
TGI (U251 CNS): > 100 µM
TGI (SF-539 CNS): > 100 µM
TGI (MOLT-4 leukemia): > 100 µM
TGI (OVCAR-5 ovarian): > 100 µM
TGI (HCT-15 colon): > 100 µM

COc1ccc(/C=C/c2c(C(=O)/C=C/c3ccc(C(F)(F)F)cc3)c(C)nc3ccccc23)cc1
GI50 (SF-295 CNS): 1.71 µM
TGI (SF-295 CNS): 3.28 µM
GI50 (A498 renal): 1.77 µM
TGI (A498 renal): 3.24 µM
GI50 (U251 CNS): 1.53 µM
TGI (U251 CNS): 3.28 µM
GI50 (SF-539 CNS): 1.85 µM
TGI (SF-539 CNS): 3.34 µM
GI50 (MOLT-4 leukemia): 1.04 µM
TGI (MOLT-4 leukemia): > 100 µM
GI50 (OVCAR-5 ovarian): 2.13 µM
TGI (OVCAR-5 ovarian): 5.53 µM
GI50 (HS 578T breast): 2.87 µM
TGI (HS 578T breast): 8.29 µM
GI50 (HCT-15 colon): 1.14 µM
TGI (HCT-15 colon): 4.59 µM
GI50 (T-47D breast): 1.31 µM
TGI (T-47D breast): 3.78 µM
